Patent publication US10299999B2, “Flavour composition comprising menthol and menthane carboxamides” (Givaudan, S.A., priority 2011, dated 2019)

Test: Toothpaste sensory panel: flavours A-C at 1% in silica toothpaste base, scored 0-10 for cooling, tingling, freshness and overall preference
Assay type: in vivo, naive volunteers
Details: low levels replacing high levels of menthol in a toothpaste flavour
Description: The Flavours were each incorporated into a standard silica toothpaste base at 1%:
All three toothpastes were coded and given to 37 naive volunteers. The volunteers were asked to brush the teeth for 30 seconds and score each toothpaste (0-10 scale) for cooling, tingling and freshness at each of six time points: 0 minutes, 5 minutes, 10 minutes, 20 minutes, 30 minutes and 60 minutes. At the end of the 60 minutes, they were also asked for their overall preference scores (0-10 scale).

CC(C)[C@@H]1CC[C@@H](C)C[C@H]1C(=O)Nc1ccc(CC#N)cc1 (stereo in doubt) [Evercool 180, N-(4-cyanomethylphenyl) p-menthanecarboxamide]
sensorial benefits compared with the flavour with the high levels of menthol: superior sensorial benefits
